Measurements from publication PMC9944927, “Mutant structure of metabolic switch protein in complex with monomeric c-di-GMP reveals a potential mechanism of protein-mediated ligand dimerization” (Scientific Reports, 2023).

Columns and labels:
SmbA [1] = biological target: T1, SmbA (Caulobacter vibrioides, UniProt Q9A5E6); assay: ITC (apparent Kd); AUC sedimentation shift; format: binding
T1 construct: gene CC_2504; SmbAwt, His6
T1 sequence (Q9A5E6 1-296): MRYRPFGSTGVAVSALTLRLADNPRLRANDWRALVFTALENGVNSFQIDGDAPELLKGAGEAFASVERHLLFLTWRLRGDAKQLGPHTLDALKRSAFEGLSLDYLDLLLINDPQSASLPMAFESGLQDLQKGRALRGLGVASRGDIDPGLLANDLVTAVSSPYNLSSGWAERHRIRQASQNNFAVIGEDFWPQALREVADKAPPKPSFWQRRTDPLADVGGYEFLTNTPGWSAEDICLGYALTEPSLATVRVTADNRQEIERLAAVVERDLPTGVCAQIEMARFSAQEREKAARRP

SmbA [2] = biological target: T2, SmbA (Caulobacter vibrioides, UniProt Q9A5E6, DEL198-215); assay: X-ray crystal structure at […] Å; ITC ([…] stoichiometry); format: binding
T2 construct: gene CC_2504; SmbA∆loop, partial loop 7 deletion (fragment 198–215 deleted), His6
T2 sequence (Q9A5E6 with tags, fused parts or gaps DEL198-215): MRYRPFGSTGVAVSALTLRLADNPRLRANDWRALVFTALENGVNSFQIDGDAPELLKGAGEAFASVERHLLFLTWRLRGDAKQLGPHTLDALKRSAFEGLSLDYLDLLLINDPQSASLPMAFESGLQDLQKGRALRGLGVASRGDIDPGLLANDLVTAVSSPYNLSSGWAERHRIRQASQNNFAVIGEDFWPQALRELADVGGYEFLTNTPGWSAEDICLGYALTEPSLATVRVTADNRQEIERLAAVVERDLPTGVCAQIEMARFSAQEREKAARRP

With Nc1nc2c(ncn2[C@@H]2O[C@@H]3CO[P@](=O)(O)O[C@H]4[C@@H](O)[C@H](n5cnc6c(=O)[nH]c(N)nc65)O[C@@H]4CO[P@](=O)(O)O[C@H]3[C@H]2O)c(=O)[nH]1 [c-di-GMP] the Kd (SmbA [1]) was 300 nM and the Kd (SmbA [2]) was 1800 nM.
